Source: ChEMBL document CHEMBL1201862, “PubChem BioAssay data set” (2004)
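In this assay, cells in 96-well plates receive the compound at five concentrations for 48 hours. Endpoints are linearly interpolated between the surrounding concentrations. GI50: concentration for 50% inhibition of growth.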 Activity calls are given as the source filed them. Cut-off read from the data, not from the text of the source: active = GI50 up to about 1.1 µM and inactive = higher.

How the values were obtained:
Experiment in all cases: NCI anticancer screen, dose series, 48 h
[1] = test system: A498
[2] = test system: A549
[3] = test system: ACHN
[4] = test system: BT-549
[5] = test system: CAKI-1
[6] = test system: CCRF-CEM
[7] = test system: COLO 205
[8] = test system: DU-145
[9] = test system: EKVX
[10] = test system: HCC 2998
[11] = test system: HCT-116
[12] = test system: HCT-15
[13] = test system: HL-60
[14] = test system: HOP-62
[15] = test system: HOP-92
[16] = test system: HT-29
[17] = test system: Hs-578T
[18] = test system: IGROV-1
[19] = test system: K562
[20] = test system: KM12
[21] = test system: LOX IMVI
[22] = test system: M14
[23] = test system: MCF7
[24] = test system: MDA-MB-231
[25] = test system: MDA-MB-435
[26] = test system: MDA-N
[27] = test system: MOLT-4
[28] = test system: Malme-3M
[29] = test system: NCI-H226
[30] = test system: NCI-H23
[31] = test system: NCI-H460
[32] = test system: NCI-H522
[33] = test system: NCI/ADR-RES
[34] = test system: OVCAR-3
[35] = test system: OVCAR-4
[36] = test system: OVCAR-5
[37] = test system: OVCAR-8
[38] = test system: PC-3
[39] = test system: RPMI-8226
[40] = test system: RXF 393
[41] = test system: SF-268
[42] = test system: SF-295
[43] = test system: SF-539
[44] = test system: SK-MEL-28
[45] = test system: SK-MEL-2
[46] = test system: SK-MEL-5
[47] = test system: SK-OV-3
[48] = test system: SN12C
[49] = test system: SNB-19
[50] = test system: SNB-75
[51] = test system: SR
[52] = test system: SW-620
[53] = test system: T47D
[54] = test system: TK-10
[55] = test system: U-251
[56] = test system: UACC-257
[57] = test system: UACC-62
[58] = test system: UO-31
[59] = test system: 786-0

Fc1c(F)c(F)c(CSc2nc3ccccc3[nH]2)c(F)c1F
GI50 [1]: > 100 µM (inactive)
GI50 [2]: > 100 µM (inactive)
GI50 [3]: > 100 µM (inactive)
GI50 [4]: > 100 µM (inactive)
GI50 [5]: > 100 µM (inactive)
GI50 [6]: > 100 µM (inactive)
GI50 [7]: > 100 µM (inactive)
GI50 [8]: > 100 µM (inactive)
GI50 [9]: > 100 µM (inactive)
GI50 [10]: > 100 µM (inactive)
GI50 [11]: > 100 µM (inactive)
GI50 [12]: > 100 µM
GI50 [13]: > 100 µM (inactive)
GI50 [14]: > 100 µM (inactive)
GI50 [15]: 47 µM (inactive)
GI50 [16]: > 100 µM (inactive)
GI50 [17]: > 100 µM (inactive)
GI50 [18]: > 100 µM (inactive)
GI50 [19]: > 100 µM (inactive)
GI50 [20]: > 100 µM (inactive)
GI50 [21]: > 100 µM (inactive)
GI50 [22]: > 100 µM (inactive)
GI50 [23]: > 100 µM (inactive)
GI50 [24]: > 100 µM (inactive)
GI50 [25]: > 100 µM (inactive)
GI50 [26]: > 100 µM (inactive)
GI50 [27]: > 100 µM (inactive)
GI50 [28]: > 100 µM (inactive)
GI50 [29]: > 100 µM (inactive)
GI50 [30]: > 100 µM (inactive)
GI50 [31]: > 100 µM (inactive)
GI50 [32]: > 100 µM (inactive)
GI50 [33]: > 100 µM (inactive)
GI50 [34]: > 100 µM (inactive)
GI50 [35]: > 100 µM (inactive)
GI50 [36]: > 100 µM (inactive)
GI50 [37]: > 100 µM (inactive)
GI50 [38]: > 100 µM (inactive)
GI50 [39]: > 100 µM (inactive)
GI50 [40]: > 100 µM (inactive)
GI50 [41]: > 100 µM (inactive)
GI50 [42]: > 100 µM (inactive)
GI50 [43]: > 100 µM (inactive)
GI50 [44]: > 100 µM (inactive)
GI50 [45]: > 100 µM (inactive)
GI50 [46]: > 100 µM (inactive)
GI50 [47]: > 100 µM (inactive)
GI50 [48]: > 100 µM (inactive)
GI50 [49]: > 100 µM (inactive)
GI50 [50]: > 100 µM (inactive)
GI50 [51]: 59 µM (inactive)
GI50 [52]: > 100 µM (inactive)
GI50 [53]: > 100 µM (inactive)
GI50 [54]: > 100 µM (inactive)
GI50 [55]: > 100 µM (inactive)
GI50 [56]: > 100 µM (inactive)
GI50 [57]: > 100 µM (inactive)
GI50 [58]: > 100 µM (inactive)

O=C1Cc2c(-c3ccc(Cl)cc3)cc(-c3ccccc3)nc2-c2ccccc2N1
GI50 [59]: 2.03 µM (inactive)
GI50 [1]: 2.07 µM (inactive)
GI50 [2]: 5.66 µM (inactive)
GI50 [3]: 5.09 µM (inactive)
GI50 [4]: 21.4 µM (inactive)
GI50 [5]: 4.86 µM (inactive)
GI50 [6]: 6.35 µM (inactive)
GI50 [7]: 2.46 µM (inactive)
GI50 [8]: 8.18 µM (inactive)
GI50 [9]: 10.5 µM (inactive)
GI50 [10]: 4.06 µM (inactive)
GI50 [11]: 3.44 µM (inactive)
GI50 [12]: 4.85 µM
GI50 [13]: 10.7 µM (inactive)
GI50 [14]: 8.24 µM (inactive)
GI50 [15]: 2.4 µM (inactive)
GI50 [16]: 4.5 µM (inactive)
GI50 [17]: 7.26 µM (inactive)
GI50 [18]: 6.95 µM (inactive)
GI50 [19]: 15.1 µM (inactive)
GI50 [20]: 9.25 µM (inactive)
GI50 [21]: 6.56 µM (inactive)
GI50 [22]: 11.6 µM (inactive)
GI50 [23]: 9.16 µM (inactive)
GI50 [24]: 4.35 µM (inactive)
GI50 [25]: 7.76 µM (inactive)
GI50 [26]: 9.35 µM (inactive)
GI50 [27]: 9.53 µM (inactive)
GI50 [28]: 17 µM (inactive)
GI50 [29]: 10.8 µM (inactive)
GI50 [30]: 10.5 µM (inactive)
GI50 [31]: 2.1 µM (inactive)
GI50 [32]: 8.38 µM (inactive)
GI50 [33]: 6.19 µM (inactive)
GI50 [34]: 11.7 µM (inactive)
GI50 [35]: 6.62 µM (inactive)
GI50 [36]: 16.2 µM (inactive)
GI50 [37]: 2.76 µM (inactive)
GI50 [38]: 19.4 µM (inactive)
GI50 [39]: 9.25 µM (inactive)
GI50 [40]: 4.81 µM (inactive)
GI50 [41]: 12.1 µM (inactive)
GI50 [42]: 6.38 µM (inactive)
GI50 [43]: 8.87 µM (inactive)
GI50 [44]: 4.67 µM (inactive)
GI50 [45]: 26.6 µM (inactive)
GI50 [46]: 5.15 µM (inactive)
GI50 [47]: 4.46 µM (inactive)
GI50 [48]: 3.71 µM (inactive)
GI50 [49]: 1.87 µM (inactive)
GI50 [50]: 3.82 µM (inactive)
GI50 [51]: 7.13 µM (inactive)
GI50 [52]: 11 µM (inactive)
GI50 [53]: 2.66 µM (inactive)
GI50 [54]: 6.07 µM (inactive)
GI50 [55]: 3.08 µM (inactive)
GI50 [56]: 25.4 µM (inactive)
GI50 [57]: 11.9 µM (inactive)
GI50 [58]: 4.34 µM (inactive)

O=C1Sc2cc3ccccc3cc2C(=O)Sc2ccc(Br)cc21
GI50 [59]: 2.07 µM (inactive)
GI50 [1]: 19 µM (inactive)
GI50 [2]: 8.89 µM (inactive)
GI50 [3]: 1.66 µM (inactive)
GI50 [4]: 3.29 µM (inactive)
GI50 [5]: 4.73 µM (inactive)
GI50 [6]: 1.12 µM (active)
GI50 [7]: 12.8 µM (inactive)
GI50 [8]: 4.84 µM (inactive)
GI50 [9]: 14.3 µM (inactive)
GI50 [10]: 4.57 µM (inactive)
GI50 [11]: 5.45 µM (inactive)
GI50 [12]: 2.43 µM
GI50 [13]: 3.9 µM (inactive)
GI50 [14]: 6.21 µM (inactive)
GI50 [15]: 7.29 µM (inactive)
GI50 [16]: 3.41 µM (inactive)
GI50 [17]: 5.09 µM (inactive)
GI50 [18]: 3.78 µM (inactive)
GI50 [19]: 4.17 µM (inactive)
GI50 [20]: 7.16 µM (inactive)
GI50 [21]: 1.76 µM (inactive)
GI50 [22]: 3.54 µM (inactive)
GI50 [23]: 4.46 µM (inactive)
GI50 [24]: 4.09 µM (inactive)
GI50 [25]: 3.48 µM (inactive)
GI50 [26]: 4.51 µM (inactive)
GI50 [27]: 3.55 µM (inactive)
GI50 [28]: 11.9 µM (inactive)
GI50 [29]: 14.9 µM (inactive)
GI50 [30]: 8.47 µM (inactive)
GI50 [31]: 7.26 µM (inactive)
GI50 [32]: 1.82 µM (inactive)
GI50 [33]: 3.67 µM (inactive)
GI50 [34]: 1.79 µM (inactive)
GI50 [35]: 14.6 µM (inactive)
GI50 [36]: 11.8 µM (inactive)
GI50 [37]: 2.51 µM (inactive)
GI50 [38]: 3.43 µM (inactive)
GI50 [39]: 1.65 µM (inactive)
GI50 [40]: 2.48 µM (inactive)
GI50 [41]: 6.08 µM (inactive)
GI50 [42]: 13.1 µM (inactive)
GI50 [43]: 7.93 µM (inactive)
GI50 [44]: 3.13 µM (inactive)
GI50 [45]: 4.56 µM (inactive)
GI50 [46]: 8.3 µM (inactive)
GI50 [47]: 15.5 µM (inactive)
GI50 [48]: 3.93 µM (inactive)
GI50 [49]: 15.2 µM (inactive)
GI50 [50]: 4.84 µM (inactive)
GI50 [51]: 2.45 µM (inactive)
GI50 [52]: 3.07 µM (inactive)
GI50 [53]: 3.33 µM (inactive)
GI50 [54]: 5.33 µM (inactive)
GI50 [55]: 2.06 µM (inactive)
GI50 [56]: 5.81 µM (inactive)
GI50 [57]: 4.93 µM (inactive)

CN1CCc2c3n(c4cc(Br)ccc24)[C@H](O)CCCC31 (stereo partly drawn)
GI50 [59]: 1.7 µM (inactive)
GI50 [1]: 4.11 µM (inactive)
GI50 [2]: > 5.86 µM (inactive)
GI50 [3]: > 10 µM (inactive)
GI50 [4]: > 10 µM (inactive)
GI50 [5]: 2.99 µM (inactive)
GI50 [6]: 1.87 µM (inactive)
GI50 [7]: 1.78 µM (inactive)
GI50 [8]: > 10 µM (inactive)
GI50 [9]: > 10 µM (inactive)
GI50 [10]: 1.75 µM (inactive)
GI50 [11]: 1.69 µM (inactive)
GI50 [12]: 2.62 µM
GI50 [13]: 1.85 µM (inactive)
GI50 [14]: > 10 µM (inactive)
GI50 [15]: 3.61 µM (inactive)
GI50 [16]: 1.81 µM (inactive)
GI50 [17]: 2.15 µM (inactive)
GI50 [18]: > 7.11 µM (inactive)
GI50 [19]: 1.37 µM (inactive)
GI50 [20]: 2.38 µM (inactive)
GI50 [21]: 1.74 µM (inactive)
GI50 [22]: 1.79 µM (inactive)
GI50 [23]: 1.78 µM (inactive)
GI50 [24]: 2.13 µM (inactive)
GI50 [25]: 1.8 µM (inactive)
GI50 [26]: 1.82 µM (inactive)
GI50 [27]: 1.95 µM (inactive)
GI50 [28]: 2.04 µM (inactive)
GI50 [29]: > 10 µM (inactive)
GI50 [30]: > 10 µM (inactive)
GI50 [31]: 1.6 µM (inactive)
GI50 [32]: 1.49 µM (inactive)
GI50 [33]: 4.97 µM (inactive)
GI50 [34]: > 7.5 µM (inactive)
GI50 [35]: 2.67 µM (inactive)
GI50 [36]: > 5.18 µM (inactive)
GI50 [37]: 1.79 µM (inactive)
GI50 [38]: 5.89 µM (inactive)
GI50 [39]: 2.4 µM (inactive)
GI50 [40]: 2.59 µM (inactive)
GI50 [41]: > 9.31 µM (inactive)
GI50 [42]: 1.77 µM (inactive)
GI50 [43]: 1.9 µM (inactive)
GI50 [44]: 1.72 µM (inactive)
GI50 [45]: 0.736 µM (active)
GI50 [46]: 3.18 µM (inactive)
GI50 [47]: > 10 µM (inactive)
GI50 [48]: > 7.16 µM (inactive)
GI50 [49]: > 10 µM (inactive)
GI50 [50]: 2.3 µM (inactive)
GI50 [51]: 1.93 µM (inactive)
GI50 [52]: 1.96 µM (inactive)
GI50 [53]: > 10 µM (inactive)
GI50 [54]: > 7.36 µM (inactive)
GI50 [55]: 1.85 µM (inactive)
GI50 [56]: 2.25 µM (inactive)
GI50 [58]: > 7.52 µM (inactive)
